Assay: gradient 5% acetonitrile 3 min, to 50% in 2 min, to 85% in 15 min, held 3 min, 100 µL/min
Details: column: Zorbax Extend-C18 2.1 x 50 mm; eluents: water / acetonitrile, 0.1% formic acid
Method in brief: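 Mixtures of ~100 pure standards were chromatographed on a Zorbax Extend-C18 column (2.1 × 50 mm, 1.8 μm) at 100 μL/min using water and acetonitrile, each with 0.1% formic acid. Detection used a quadrupole time-of-flight mass spectrometer in positive and negative ionization mode, and data collection spanned 3 months. Retention time was obtained from adduct peaks picked computationally and each checked manually.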

## Cc1cccc(NC(=O)C2CCN(C(=O)C3Sc4ccccc4NC3=O)CC2)c1C (centres undefined)
  RP-LC retention time: 753 s

## CCc1noc(NC(C)=O)c1-c1ccc(C)c(S(=O)(=O)Nc2ccc(OC)c(Cl)c2)c1
  RP-LC retention time: 1300 s

## Cc1ccc(-c2nnc(-c3cccc(S(=O)(=O)NC(C)(C)C)c3)o2)cc1
  RP-LC retention time: 1030 s

## COc1ccccc1CNC(=O)C1CCCN(S(=O)(=O)c2cc(-c3noc(C)n3)cs2)C1 (centres undefined)
  RP-LC retention time: 892 s

## Cc1ccc(-c2nnc(N3CCC(C(=O)NCCN4CCCCCC4)CC3)o2)cc1
  RP-LC retention time: 632 s

## Cc1cc(Cl)ccc1NC(=O)N1CCCC1c1nnc2n1CCN(C)CC2 (centres undefined)
  RP-LC retention time: 584 s

## COC(=O)c1ccc(Cn2cnc3c(Cl)ncnc32)cc1
  RP-LC retention time: 790 s

## COc1cc(Nc2nc(C(=O)N3CCOCC3)cc3occc23)cc(OC)c1OC
  RP-LC retention time: 710 s

## CCCNC(=O)c1cn(-c2cc(-c3nc(C4CC4)no3)ccn2)cn1
  RP-LC retention time: 818 s

## CC1=C(c2ccc(C)cc2)S(=O)(=O)N=C1N1CCCN(C(=O)c2ccco2)CC1
  RP-LC retention time: 653 s

## Cc1c(Cl)cccc1S(=O)(=O)NCC1CCN(C(=O)c2cccn(C)c2=O)CC1
  RP-LC retention time: 654 s

## Cc1cnc(C(=O)N2C[C@@H](Oc3cccnc3)C[C@H]2C(=O)NC2CC2)cn1
  RP-LC retention time: 554 s

## CCOCCOC(=O)C1=C(C)NC2=C(C(=O)CC(C)(C)C2)C1c1cccc(OC)c1OC (centres undefined)
  RP-LC retention time: 791 s

## O=C(NCc1ccccc1F)C1=C2CCCN2c2ccccc2S1(=O)=O
  RP-LC retention time: 818 s

## Cn1c(=O)oc2cc(-c3noc(-c4cccc5[nH]ccc45)n3)ccc21
  RP-LC retention time: 932 s

## COc1ccc2[nH]c3c(c2c1)CCNC31CCN(C(=O)C2CCN2C2CCCCC2)CC1 (centres undefined)
  RP-LC retention time: 576 s

## CCN(CCN(C)C)c1ccc(C(=O)O)cc1NS(=O)(=O)c1ccc(C)cc1
  RP-LC retention time: 623 s

## O=C(NC1CCCCCC1)c1cn(-c2ccc(-c3nc(C4CC4)no3)cn2)cn1
  RP-LC retention time: 1010 s

## Nc1cc(C2CCN(C(=O)Nc3ccc(Br)cc3)CC2)no1
  RP-LC retention time: 732 s

## CC1CCN(c2cc(-n3cnc(C(=O)Nc4ccc5c(c4)OCCO5)c3)ncn2)CC1
  RP-LC retention time: 1030 s

## CSc1cccc(NC(=O)CN2C(=O)C3CCCCN3c3ccc(S(=O)(=O)N(C)C)cc32)c1 (centres undefined)
  RP-LC retention time: 982 s

## O=C(Cn1nc(C(=O)N2CCCC2)c2ccccc21)N1CCN(c2cccc(Cl)c2)CC1
  RP-LC retention time: 942 s

## COCc1ncc(C)n1CCNC(=O)NC1CCCCC1
  RP-LC retention time: 587 s

## CCOC(=O)c1cc(C2CC2)nc2c1c(=O)n(Cc1ccc(OC)cc1)c(=O)n2C
  RP-LC retention time: 1170 s

## CCn1nnc(NCc2ccc(-c3ccc(Br)cc3Cl)o2)n1
  RP-LC retention time: 1120 s

## CCC(=O)N1CCCc2cc(NC(=O)c3ccco3)ccc21
  RP-LC retention time: 725 s

## Cc1cc(-c2nnc(-c3ccc(F)cc3)o2)c(C)n1CC(=O)N1CCCC1
  RP-LC retention time: 808 s

## O=S(=O)(c1cccc(F)c1)N1CC(c2noc(C3CCCN3CC3CC3)n2)C1 (centres undefined)
  RP-LC retention time: 676 s

## O=C(NC1CCCCC1)C1CCN(S(=O)(=O)c2cc(C(=O)N3CCCC3)cs2)CC1
  RP-LC retention time: 765 s

## CC(C)CC(=O)Nc1nc(-c2ccc3c(c2)N(C)C(=O)CO3)cs1
  RP-LC retention time: 830 s

## CC(C)CN1CCn2cc(C(=O)NCC3CCCCC3)nc2C1
  RP-LC retention time: 634 s

## Cc1onc(C(=O)N2CCc3c(c(-c4nncn4CC4CC4)nn3C)C2)c1Cn1cc(Cl)cn1
  RP-LC retention time: 735 s

## CCc1noc(NC(C)=O)c1-c1ccc(C)c(S(=O)(=O)Nc2ccc(C(F)(F)F)cc2)c1
  RP-LC retention time: 902 s

## CCCC(=O)Nc1ccc(-n2cnc(C(=O)NC3CCCCC3)c2)nc1
  RP-LC retention time: 758 s

## CCCCCn1c(=O)c2ccccc2n(Cc2nc(-c3cc(OC)c(OC)c(OC)c3)no2)c1=O
  RP-LC retention time: 646 s

## CCn1cc(S(=O)(=O)N2C[C@H]3CN(S(=O)(=O)c4cccc(C)c4)C[C@@H](C2)O3)cn1
  RP-LC retention time: 833 s

## CC(C)NC(=O)C1CCN(C(=O)c2cc(-c3ccncc3)n[nH]2)CC1
  RP-LC retention time: 556 s

## Cc1nn(-c2ccc(F)cc2)c2nc(N3CCCC(C(=O)NCc4ccc(Cl)cc4)C3)sc12 (centres undefined)
  RP-LC retention time: 1190 s

## COc1cccc(NC(=O)Cn2nc3c(N(C)C4CCCCC4)nccn3c2=O)c1
  RP-LC retention time: 745 s

## O=C1CCCc2cc(S(=O)(=O)N3CCC(C(=O)Nc4cccc(F)c4)CC3)ccc2N1
  RP-LC retention time: 770 s

## Cc1noc(COC2CCCN(C(=O)NCc3ccccc3)C2)n1 (centres undefined)
  RP-LC retention time: 684 s

## O=C(NC1CCN(c2cc(-c3ccc(F)cc3)[nH]n2)C1)c1cccs1 (centres undefined)
  RP-LC retention time: 699 s

## COc1ccccc1NC(=O)N1CCC(CNS(=O)(=O)Cc2cccc(F)c2)CC1
  RP-LC retention time: 787 s

## O=C(NC1CCN(c2cc(-c3ccc(F)cc3)[nH]n2)C1)c1cccc(F)c1 (centres undefined)
  RP-LC retention time: 735 s
